Assay results reported in patent US8158621B2, “Methods of treating or preventing autoimmune diseases with 2,4-pyrimidinediamine compounds” (Rigel Pharmaceuticals, Inc., priority 2002, dated 2012).
pIC50: −log10 of the molar value.

The molecules below were run on Human Jurkat T-cells (clone N) (assay: Jurkat T-cell activation (anti-TCR, CD69 upregulation)). Details: not given.
Format: cell-based
Description: The screening process took place over three days.
On the first day of the screen, cultured cells were spun down on a centrifuge (1000 rpm, 5 minutes) and resuspended at 3.0×10^5 cells/ml in RPMI+5% FBS. On the second day of the screen, cells were spun down at 1000 rpm for 5 minutes and resuspended in RPMI+5% FBS at 1.3×10^5 cells/ml. 85 μl of this cell suspension were added to the wells of U-bottom 96 well plates (Corning) 85 μl of compound or diluted RPMI+5% FBS (as a control) only was added to each well and incubated at 37° C. for 1 hour. The cells were then stimulated with anti-TCR (C305) at: 500 ng/ml by adding a 8× solution in 25 μl to the plated cells. The cells were then incubated at 37° C. for 20 hrs.
On the third day of the screen, the plates were spun at 2500 RPM for 1 minute on a Beckman GS-6R centrifuge, and the medium was then removed. 50 μl staining solution (1:100 dilution of anti-CD69-APC antibody (Becton Dickenson) in PBS+2% FBS) was then added to each well, followed by incubation of the plates 4 degrees for 20 minutes in the dark. 150 μl of wash buffer (PBS+2% FBS) was then added to each well, and the plates were spun at 3000 RPM for 1 minute. The supernatant was again removed, and the pellet was resuspended by vortexing gently. 75 μl of PBS+2% FBS +Cytofix (1:4 dilution) was then added, the plates gently vortexed and wrap in aluminum foil. Cells from the plates were read using a flow cytometer coupled to an automated liquid handling system.
Varied concentrations of compound were compared to solvent only to determine the inhibition of T-cell activation IC50 of each compound.

pIC50	SMILES
4.65	O=C(COc1cccc(Nc2ncc(F)c(Nc3cc(Cl)c(O)c(Cl)c3)n2)c1)N1CCOCC1 [Compound R950187]
4.96	CC(C)Oc1ccc(Nc2ncc(F)c(Nc3ccc(OCc4nc(-c5ccccc5)no4)cc3)n2)cc1 [Compound R935139]
< 5.00	O=[N+]([O-])c1ccc(NCCO)c(Nc2ccnc(Nc3cc([N+](=O)[O-])ccc3NCCO)n2)c1 [Compound R950156]
5.29	CON=C(N)COc1ccc(Nc2ncc(F)c(Nc3cccc(O)c3)n2)cc1 [Compound R945167]
< 5.00	O=C(CNc1cccc(Nc2ncc(F)c(Nc3cccc(NCCO)c3)n2)c1)NCCN1CCOCC1 [Compound R950239]
< 5.00	CNC(=O)COc1cccc(Nc2ncc(F)c(Nc3ccc(OCCC(=O)O)cc3)n2)c1 [Compound R950344]
5.33	CCOC(=O)CNC(=O)Oc1cccc(Nc2nc(Nc3cccc(OCC(=O)NC)c3)ncc2F)c1 [Compound R926918]
< 5.00	CC(C)(C)c1ccc(Nc2nc(Nc3cccc(OCC(=O)O)c3)ncc2F)cc1 [Compound R926726]
< 5.00	Nc1cccc(Nc2nc(Nc3cccc(NC(=O)CCC(C(=O)O)N4C(=O)c5ccccc5C4=O)c3)ncc2F)c1 (racemic) [Compound R950251]
5.09	COC(=O)Cn1ncc2ccc(Nc3nc(Nc4cccc(O)c4)ncc3F)cc21 [Compound R935220]
4.96	CNC(=O)COc1cccc(Nc2ncc(F)c(Nc3ccc(Cl)c(C(F)(F)F)c3)n2)c1 [Compound R926881]
5.24	CNC(=O)COc1cccc(Nc2ncc(F)c(Nc3ccc4c(c3)C(=NOC)CCO4)n2)c1 [Compound R950356]
< 5.00	COC(=O)c1cc2cc(Nc3ncc(F)c(Nc4ccc(OCc5nc(C)no5)cc4)n3)ccc2o1 [Compound R935146]
5.44	CNC(=O)COc1cccc(Nc2ncc(F)c(Nc3ccc(OC)c(OC)c3)n2)c1 [Compound R926733]
< 5.00	COc1cc(C(=O)NS(=O)(=O)c2ccccc2C)ccc1Cn1ncc2ccc(Nc3ncc(F)c(Nc4ccc5c(c4)OCCO5)n3)cc21 [Compound R935323]
< 5.00	COc1cc(Nc2nc(Nc3cccc(O)c3)ncc2F)c(OC)cc1Cl [Compound R926860]
4.51	CCOC(=O)C(C)(C)Oc1cccc(Nc2ncc(F)c(Nc3ccc(C)c(O)c3)n2)c1 [Compound R926908]
4.98	O=[N+]([O-])c1cccc(Nc2nc(Nc3ccc4c(c3)NCCO4)ncc2F)c1 [Compound R950253]
< 5.00	CC1(C)CN(c2ccccn2)c2cc(Nc3nc(Cl)ncc3F)ccc2O1 [Compound R940336]

pIC50	SMILES
5.17	CC(C)(C)c1cccc(Nc2nc(Nc3cccc(OCCO)c3)ncc2F)c1 [Compound R940282]
5.53	CNC(=O)COc1cccc(Nc2ncc(F)c(Nc3ccc4[nH]ccc4c3)n2)c1 [Compound R926931]
4.79	CNC(=O)COc1cccc(Nc2ncc(F)c(Nc3ccc(OC)c(C(=O)NC(C)C)c3)n2)c1 [Compound R940312]
5.55	CNC(=O)COc1ccc(Nc2ncc(F)c(Nc3ccc4c(c3)OCCO4)n2)cc1 [Compound R909240]
4.92	CCOC(=O)c1ncn2c1COc1c(Nc3nc(Nc4cccc(OCC(=O)NC)c4)ncc3F)cccc1-2 [Compound R909265]
5.34	COC(=O)Cn1ncc2cc(Nc3ncc(F)c(Nc4ccc5c(c4)OCCO5)n3)ccc21 [Compound R935223]
5.52	CNC(=O)COc1cccc(Nc2nc(Nc3ccc4c(c3)NCCO4)ncc2F)c1 [Compound R909247]
< 5.00	COC(=O)COc1ccc(Nc2ncc(F)c(Nc3ccc(OCC(=O)OC(C)(C)C)cc3)n2)cc1 [Compound R926572]
5.06	ON=C(c1ccccc1)c1cccc(Nc2ncc(F)c(Nc3cccc(C(=NO)c4ccccc4)c3)n2)c1 [Compound R950380]
5.52	OCC(O)COc1ccc(Nc2ncc(F)c(Nc3ccc4c(c3)OCCO4)n2)cc1 (centres unmarked) [Compound R935179]
4.96	CNC(=O)COc1cccc(Nc2ncc(F)c(Nc3ccc(OC)c(C(=O)NC)c3)n2)c1 [Compound R940306]
6.30	OCCCn1ncc2cc(Nc3ncc(F)c(Nc4cccc(O)c4)n3)ccc21 [Compound R935304]
5.74	CNC(=O)COc1cccc(Nc2ncc(F)c(Nc3ccc4c(c3)N(c3ccccn3)CC(C)(C)O4)n2)c1 [Compound R940337]
5.19	CCOC(=O)C1CCN(Cc2cccc(Nc3nc(Nc4cccc(OCC(=O)NC)c4)ncc3F)c2)CC1 [Compound R926905]
5.70	CNC(=O)COc1cccc(Nc2ncc(F)c(Nc3ccc4[nH]ncc4c3)n2)c1 [Compound R935279]
< 5.00	Oc1cccc(Nc2nc(NC3CCN(Cc4ccccc4)CC3)ncc2F)c1 [Compound R940264]
5.75	O=C(COc1cccc(Nc2ncc(F)c(Nc3ccc4c(c3)OCCO4)n2)c1)N1CCNCC1 [Compound R926504]
< 5.00	CNCCNC(=O)CNc1cccc(Nc2ncc(F)c(Nc3cccc(NCCO)c3)n2)c1 [Compound R950234]

SMILES	pIC50
CNC(=O)COc1cccc(Nc2ncc(F)c(Nc3ccc4c(c3)OCCO4)n2)c1 [Compound R926826]	5.43

Same assay, conditions: Homo sapiens

SMILES	pIC50
CCNC(=O)Oc1cccc(Nc2ncc(F)c(Nc3cccc(O)c3)n2)c1 [Compound R926928]	< 5.00

Same assay, conditions: Homo sapiens, Jurkat

pIC50	SMILES
4.77	Fc1cnc(Nc2ccc3c(c2)OCO3)nc1Nc1ccc2c(c1)OCO2 [Compound R925776]
< 5.00	COC(=O)c1cc(Nc2ncc(F)c(Nc3ccc(O)c(C(=O)OC)c3)n2)ccc1O [Compound R945043]
< 5.00	Fc1cnc(NCc2csc3ccccc23)nc1NCc1csc2ccccc12 [Compound R945145]
5.54	Oc1cccc(Nc2ncc(F)c(Nc3ccc4[nH]ccc4c3)n2)c1 [Compound R926932]
5.10	CNC(=O)c1cccc(Nc2ncc(F)c(Nc3cccc(O)c3)n2)c1 [Compound R926936]
5.00	Cc1cc(Nc2ncc(F)c(Nc3cc(C)c(O)cc3C)n2)c(C)cc1O [Compound R926623]
5.46	CN(C)CCOc1cccc(Nc2ncc(F)c(Nc3ccc4c(c3)OCCO4)n2)c1 [Compound R926771]
< 5.00	COC(=O)Cc1ccc(Nc2ncc(F)c(Nc3ccc(CC(=O)OC)cc3)n2)cc1 [Compound R926605]
4.90	Cc1cnc(NCCc2ccc(O)cc2)nc1NCCc1ccc(O)cc1 [Compound R926397]
4.74	OCc1cccc(Nc2nc(Nc3ccc4c(c3)OCCO4)ncc2F)c1 [Compound R925758]
5.37	COc1ccc(Nc2nc(Nc3cccc(O)c3)ncc2F)cc1Cl [Compound R926945]
< 5.00	O=C(O)c1cc(Nc2ncc(F)c(Nc3ccc(O)c(C(=O)O)c3)n2)ccc1O [Compound R945041]
< 5.00	Oc1cccc(Nc2nc(Nc3ccc(-n4cnc(Cl)c4Cl)cc3)ncc2F)c1 [Compound R926777]
< 5.00	CCOC(=O)c1nc(Nc2cccc(O)c2)nc(Nc2cccc(O)c2)c1N [Compound R925856]
4.65	Nc1cc(Nc2ncc(F)c(Nc3cc(N)cc(C(F)(F)F)c3)n2)cc(C(F)(F)F)c1 [Compound R950140]
< 5.00	Fc1cnc(Nc2ccc(Cl)cc2)nc1Nc1ccc(Cl)cc1 [Compound R926206]

pIC50	SMILES
5.52	c1cc(Nc2ccc3c(c2)OCCO3)nc(Nc2ccc3c(c2)OCCO3)n1 [Compound R926243]
< 5.00	Oc1cccc(Nc2ncc(F)c(Nc3cccc(C4=NN(c5ccccc5)CO4)c3)n2)c1 [Compound R926866]
4.84	COC(=O)c1ccc(Nc2ncc(F)c(Nc3ccc(C(=O)OC)c(OC)c3)n2)cc1OC [Compound R945065]
5.07	Nc1cc(Nc2ncc(F)c(Nc3ccc(F)c(N)c3)n2)ccc1F [Compound R950159]
< 5.00	CC(C)c1cccc(Nc2ncc(F)c(Nc3cccc(C(C)C)c3)n2)c1 [Compound R940297]
< 5.00	Cc1c(O)cccc1Nc1ncc(F)c(Nc2cccc(O)c2C)n1 [Compound R945038]
< 5.00	Oc1cccc(Nc2ncc(F)c(Nc3ccc4ncccc4c3)n2)c1 [Compound R927019]
5.49	CN1C(=O)COc2cc(Nc3nc(Nc4cccc(O)c4)ncc3F)ccc21 [Compound R909264]
< 5.00	C=CCNc1ncc(Br)c(Nc2cccc(O)c2)n1 [Compound R925822]
5.50	CC(C)(CO)c1ccc(Nc2nc(Nc3cccc(OCCO)c3)ncc2F)cc1 [Compound R935161]
< 5.00	Fc1cnc(Nc2cccc(OCc3ccccc3)c2)nc1Nc1cccc(OCc2ccccc2)c1 [Compound R926394]
< 5.00	COC(=O)c1cccc(Nc2ncc(F)c(Nc3cccc(C(=O)OC)c3)n2)c1 [Compound R945035]
< 5.00	Oc1cccc(Nc2nc(NCc3ccc4c(c3)CCO4)ncc2F)c1 [Compound R950213]
5.03	C=CCNc1ncc(F)c(Nc2ccc3c(c2)OCCO3)n1 [Compound R925823]
< 5.00	O=C(O)C1CCC(Nc2nc(Nc3ccc4c(c3)OCCO4)ncc2F)CC1 (centres unmarked) [Compound R925795]
< 5.00	Fc1cc(Nc2ncc(F)c(Nc3ccc(C(F)(F)F)c(F)c3)n2)ccc1C(F)(F)F [Compound R926018]
